The experiment relates to spiral strips of the arteria pulmonalis of the guinea pig. Description: Relaxing action on K+-depolarized, CaCl2-contracted spiral strips of guinea pig arteria pulmonalis (modified method of Godfraind and Kaba and of Schumann et al.). The settings on record: Cavia porcellus; depolarized with 40 mmol/l potassium in calcium-free Tyrode solution; contraction by 0.5 mmol/l CaCl2; cumulative addition; mean value of 4 to 6 strips of vessel; read-out: IC50: concentration of test substance which inhibits the contraction by 50%. From the text: The pharmacological action of the compound of the formula I has been determined by a modified method of Godfraind and Kaba (Arch. Int. Pharmacodyn. Ther. 196, (Suppl) 35 to 49, 1972) and of Schumann et al. (Naunyn-Schmiedeberg's Arch. Pharmacol. 289, 409 to 418, 1975). In this method, spiral strips of the arteria pulmonalis of the guinea pig are depolarized with 40 mmol/l of potassium after equilibration in calcium-free Tyrode solution. Addition of 0.5 mmol/l of CaCl2 then induces a contraction. The relaxing action of the test substance is determined by cumulative addition of concentrations graduated in 1/2 log 10. The concentration of test substance which inhibits the contraction by 50% (=IC50, mol/l) is determined from the concentration/ effect curve (abscissa: -log mol/l of test substance, ordinate: % inhibition of the maximum contraction, mean value of 4 to 6 strips of vessel). The IC50 values thus obtained are stated in the following table.

The structures appear in SMILES notation. Counter-ions that a name gives are not always drawn. A value given as a limit tells only on which side of the number the result lay.

On to `CCOC(=O)[N-]c1cn(N2CCOCC2)n[o+]1` [Molsidomine, N-ethoxycarbonyl-3-morpholino-sydnonimine, reference compound], for which the IC50 was more than 100000 nM.

On to `N=c1c[n+](NC2CCCCC2O)[n-]o1` (centres unmarked) [Example 5b, 3-(2-Hydroxycyclohexyl-amino)-sydnonimine hydrochloride], for which the IC50 came out at 1000 nM.

On to `N=c1c[n+](NCCO)[n-]o1` [Example 1a, 3-(2-Hydroxyethylamino)-sydnonimine hydrochloride], for which the IC50 turned out to be 2000 nM.

Take `CCN[n+]1cc(=N)o[n-]1` [Example 2, 3-Ethylamino-sydnonimine hydrochloride]: the IC50 worked out at 2000 nM.

Take `N=c1c[n+](NC2CCCCC2)[n-]o1` [Example 4e, 3-Cyclohexylamino-sydnonimine hydrochloride]: the IC50 worked out at 2000 nM.

These data come from patent publication US5006540A, “Substituted 3-aminosydnonimines, processes for their preparation and their use” (Cassella Aktiengesellschaft, priority 1988, dated 1991).
